Measured values from article PMC5556071, “ATR inhibition facilitates targeting of leukemia dependence on convergent nucleotide biosynthetic pathways” (Nature Communications, 2017).
Several values for one entry are separate records, joined by “and”; a condition that tells them apart may be missing. Equal entries are not always repeated.

Test system: CEM cells
Assay: Non-targeted LC-MS metabolite profiling: percent [13C6]glucose labeling and relative metabolite levels
Assay type: cell-based, human
Settings: CEM cells, 12 h following release from G1 arrest, replicates #1-#6
Description: To further investigate the functions of dCK and ATR at the G1/S transition in CEM cells, a non-targeted liquid chromatography mass spectrometry (LC-MS) assay was used to determine the utilization of labeled [^13C6]glucose and [^13C9,^15N3]deoxycytidine, the main substrates for de novo and salvage nucleotide biosynthesis, respectively. Of the 166 metabolites identified in CEM cells treated with VE-822 and/or dCKi, 105 metabolites found in all four treatment groups contained glucose-derived ^13C atoms. […] These metabolites included intermediates such as rUTP, rCTP and rCDP in the de novo dCTP biosynthesis (Fig. 1d). […] However, several deoxyribonucleotides, including dCTP, were below the limit of detection of the non-targeted LC-MS approach, raising the concern that the sensitivity of this assay is not sufficient to measure the contribution of the salvage pathway or the ratio of de novo and salvage biosynthesis to these pools. To address this problem, a newly developed targeted MS assay was developed (Fig. 1e and Supplementary Fig. 3). In this assay, samples containing either extracted dNTPs or hydrolyzed DNA from labeled cells are separated by LC for detection by a triple quadrupole mass spectrometer using multiple reaction monitoring (LC-MS/MS-MRM). The first (Q1) and third (Q3) quadrupoles function as mass filters, while the second (Q2) quadrupole serves as a collision chamber (Fig. 1e). For instance, to profile the biosynthetic composition of deoxycytidine (dC) derived from hydrolyzed DNA or dCTP, an intact, protonated dC ion is selected in Q1, followed by fragmentation of the glycosidic bond, which releases protonated cytosine in Q2, that is filtered in Q3 and detected to generate an ion chromatogram. The peak areas for the ion chromatograms of salvage [^13C9,^15N3]dC (red trace), de novo [^13C5]dC (black trace, from [^13C6]glucose) and unlabeled dC (gray trace) (Fig. 1e) are used to determine the relative contributions of the de novo and salvage routes both to dCTP pools and to DNA-incorporated dCTP.
Cells were transferred into RPMI-1640 without glucose and supplemented with 10% dialyzed FBS (Gibco) containing the following labeled substrates: precursors for de novo [U-^13C6]glucose (Sigma-Aldrich, 389374) at 11 mM; precursors for purine salvage [U-^13C10,^15N5]dA (Cambridge Isotopes, CIL 3896), [^15N5]dA (Cambridge Isotopes, NLM-3895) and [^15N5]dG (Cambridge Isotopes, NLM-3899) at 5 µM or as indicated; and precursors for pyrimidine salvage: [U-^13C9,^15N3]dC (Silantes, 124603602) and [U-^13C10,^15N2]dT (Cambridge Isotopes, CNLM-3902) at 5 µM and [^15N2]orotate (Cambridge Isotopes, NLM-1048) at indicated concentrations. The cells were incubated for 12 h or as indicated before sample collection and processing. […]
Non-targeted LC-MS metabolic assays. 1 x 10^6 cells were washed with ice-cold 150 mM ammonium acetate twice before adding 1 mL of ice-cold 80% methanol with 10 nM norvaline as an internal standard. After vigorous vortexing, samples were centrifuged at maximum speed, the aqueous layer was transferred to a glass vial and the metabolites were dried under vacuum. Metabolites were resuspended in 50 μL 70% acetonitrile (ACN) and 5 μL of this solution used for the mass spectrometer-based analysis. The analysis was performed on a Q Exactive (Thermo Scientific) in polarity-switching mode with positive voltage 4.0 kV and negative voltage 4.0 kV. The mass spectrometer was coupled to an UltiMate 3000RSLC (Thermo Scientific) UHPLC system. Mobile phase A was 5 mM ammonium acetate (NH4AcO), pH 9.9, B was acetonitrile and the separation achieved on a Luna […] NH2 100 A column (150 × 2.0 mm, Phenomenex). The flow was 200 μL/min, and the gradient ran from 15% A to 95% A in 18 min, followed by an isocratic step for 9 min and re-equilibration for 7 min. Metabolites were detected and quantified as area under the curve based on retention time and accurate mass (≤ 3 p.p.m.) using the TraceFinder 3.1 (Thermo Scientific). Relative amounts of […]

[1] = metabolite CDP (KEGG C00112), listed as V
[2] = metabolite CDP-EtA (KEGG C00570), listed as V
[3] = metabolite CMP (KEGG C00055), listed as V
[4] = metabolite CTP (KEGG C00063), listed as V
[5] = metabolite Choline (KEGG C00114), listed as V
[6] = metabolite Cinnamic acid (KEGG C00423), listed as V
[7] = metabolite Cit (KEGG C00158), listed as V
[8] = metabolite Citraconic acid (KEGG C02226), listed as V
[9] = metabolite Creatine (KEGG C00300), listed as V
[10] = metabolite Creatinine (KEGG C00791), listed as V
[11] = metabolite Cytosine (KEGG C00380), listed as V
[12] = metabolite DMG (KEGG C01026), listed as V
[13] = metabolite Dihydroorotate (KEGG C00337), listed as V
[14] = metabolite F16BP (KEGG C00354), listed as V
[15] = metabolite Folate (KEGG C00504), listed as V
[16] = metabolite Fru (KEGG C00095), listed as V
[17] = metabolite Fum (KEGG C00122), listed as V
[18] = metabolite G (KEGG C00387), listed as V
[19] = metabolite dG (KEGG C00330), listed as V
[20] = metabolite dTMP (KEGG C00364), listed as V

In the case of `CNCc1ccc(-c2cc(-c3nc(-c4ccc(S(=O)(=O)C(C)C)cc4)cnc3N)on2)cc1` [VE-822], the “Glucose labeling of CDP” value [1] is reported as 46.58% and 27.42% and 42.30% and 38.55% and 26.25% and 39.84%, the “Relative level of CDP” value [1] is reported as 3.4 and 1.2 and 1.9 and 1.6 and 0.8 and 0.754 and the “Glucose labeling of CDP-EtA” value [2] is reported as 25.10% and 38.04% and 37.00% and 40.76% and 32.59% and 33.65%. For the same compound, the “Relative level of CDP-EtA” value [2] was 0.7 (3×) and 0.9 and 0.744 and 0.633, the “Glucose labeling of CMP” value [3] was 38.36% and 31.49% and 41.31% and 20.57% and 40.83% and 49.90% and the “Relative level of CMP” value [3] was 3.0 and 2.7 and 2.4 and 1.7 and 0.9 and 0.7. The “Glucose labeling of CTP” value [4] was 40.85% and 37.06% and 39.44% and 47.60% and 38.66% and 34.33%, the “Relative level of CTP” value [4] was 1.6 and 0.5 and 0.8 and 0.848 and 0.468 and 0.448 and the “Glucose labeling of Choline” value [5] was 0.00248% (3×) and 0.00264% and 0.0024% and 0.00242%. For the same compound, the “Relative level of Choline” value [5] was 1.2 and 1.3 and 1.4 and 0.849 and 0.8 (2×), the “Glucose labeling of Cinnamic acid” value [6] was 0.00% (5×) and 1.11e-14% and the “Relative level of Cinnamic acid” value [6] was 1.7 and 1.5 and 1.6 and 1.0 (2×) and 0.9. The “Glucose labeling of Cit” value [7] was 50.64% and 47.53% and 49.55% and 44.89% and 45.53% and 45.28%, the “Relative level of Cit” value [7] was 0.9 and 0.6 and 0.7 and 0.47 and 0.449 and 0.454 and the “Glucose labeling of Citraconic acid” value [8] was 0.00% (5×) and -2.22e-14%. For the same compound, the “Relative level of Citraconic acid” value [8] was 1.1 (3×) and 1.6 and 0.8 and 1.0, the “Glucose labeling of Citrulline” value (metabolite Citrulline (KEGG C00327)) was 0.18% and the “Relative level of Citrulline” value (metabolite Citrulline (KEGG C00327), listed as V) was 0.5 and 1.2 (2×) and 2.5 and 0.3 and 0.335. The “Glucose labeling of Creatine” value [9] was 0.000881% and 0.000842% and 0.000971% and 0.000748% and 0.000833% and 0.000956%, the “Relative level of Creatine” value [9] was 1.0 and 1.1 (2×) and 0.8 and 0.9 and 0.852 and the “Glucose labeling of Creatinine” value [10] was 0.000588% and 0.000811% and 0.000818% and 0.000809% and 0.000725% and 0.000748%. The “Relative level of Creatinine” value [10] was 1.0 (3×) and 1.1 and 1.2 and 0.848, the “Glucose labeling of Cystathionine” value (metabolite Cystathionine (KEGG C02291)) was 0.26% and the “Relative level of Cystathionine” value (metabolite Cystathionine (KEGG C02291), listed as V) was 1.0 and 0.182 and 1.1 and 0.2 and 0.4 and 0.251. The “Glucose labeling of Cytosine” value [11] was 0.00381% and 0.000394% and 0.000743% and 0.000956% and 0.000512% and 0.0321%, the “Relative level of Cytosine” value [11] was 1.4 and 1.7 and 3.0 and 5.5 and 1.6 and 0.9 and the “Glucose labeling of DHAP” value (metabolite DHAP (KEGG C00111)) was 100.00%. The “Relative level of DHAP” value (metabolite DHAP (KEGG C00111), listed as V) was 5.8 and 0.3 and 1.3 and 1.2 and 0.2, the “Glucose labeling of DMG” value [12] was 0.0737% and 0.02% and 0.04% and 0.06% and 0.0145% and 0.05% and the “Relative level of DMG” value [12] was 0.7 and 1.3 and 1.0 (2×) and 0.527 and 0.9. For the same compound, the “Glucose labeling of Dihydroorotate” value [13] was 0.55% and 0.92% and 0.10% and 0.96% and 0.80% and 0.09%, the “Relative level of Dihydroorotate” value [13] was 0.9 and 0.7 and 0.8 and 0.754 and 0.5 and 0.468 and the “Glucose labeling of F16BP” value [14] was 97.93% and 88.56% and 94.79% and 95.15% and 79.77% and 75.67%. The “Relative level of F16BP” value [14] was 9.1 and 1.1 and 2.4 and 2.6 and 0.552 and 0.456, the “Glucose labeling of Folate” value [15] was 0.00% (5×) and 100.00% and the “Relative level of Folate” value [15] was 0.546 and 1.0 and 0.5 and 0.4 and 0.9. For the same compound, the “Glucose labeling of Fru” value [16] was 58.79% and 68.43% and 78.80% and 67.26% and 65.64% and 42.97%, the “Relative level of Fru” value [16] was 3.7 and 3.5 and 2.9 and 1.6 and 1.8 and 2.4 and the “Glucose labeling of Fum” value [17] was 15.89% and 14.12% and 10.85% and 10.48% and 12.71% and 7.86%. The “Relative level of Fum” value [17] was 1.3 and 0.8 (2×) and 1.1 and 0.565 and 0.5, the “Glucose labeling of G” value [18] was 0.55% (4×) and 100.00% (2×) and the “Relative level of G” value [18] was 1.1 and 0.852 and 0.9 and 1.6. The “Glucose labeling of dATP” value (metabolite dATP (KEGG C00131)) was 100.00%, the “Relative level of dATP” value (metabolite dATP (KEGG C00131)) was 0.6 and the “Glucose labeling of dCTP” value (metabolite dCTP (KEGG C00458)) was 100.00%. For the same compound, the “Relative level of dCTP” value (metabolite dCTP (KEGG C00458)) was 0.0, the “Glucose labeling of dG” value [19] was 0.38% and 0.48% and 0.49% and 0.0145% and 0.37% and 0.09% and the “Relative level of dG” value [19] was 1.7 (2×) and 1.1 (2×) and 6.1 and 1.0. The “Relative level of dGDP” value (metabolite dGDP (KEGG C00361)) was 61.2, the “Glucose labeling of dGDP” value (metabolite dGDP (KEGG C00361), listed as V) was 100.00% (5×) and 0.38% and the “Glucose labeling of dTMP” value [20] was 0.55% and 100.00% (4×) and 82.28%. The “Relative level of dTMP” value [20] was 0.7 and 6.1 and 3.9 and 1.9 and 0.6 and 0.453, the “Glucose labeling of dTTP” value (metabolite dTTP (KEGG C00459)) was 100.00% and the “Relative level of dTTP” value (metabolite dTTP (KEGG C00459), listed as V) was 0.47 and 0.4. The “Glucose labeling, Leu/Ile” value was 0.00%, the “Glucose labeling, NAD+” value was 0.00% and the “Glucose labeling, P-Creatine” value was 0.0737%. The “Glucose labeling, P-EtA” value was 0.0123%, the “Glucose labeling, PEP” value was 100.00% and the “Glucose labeling, Phe” value was 0.00%. For the same compound, the “Glucose labeling, Pipecolate” value was 0.00%, the “Glucose labeling, Pyr” value was 100.00% and the “Glucose labeling, Sarc (C00213)” value was 0.0369%. The “Glucose labeling, Thr (C00188)” value was 0.00% and the “Glucose labeling, Trigonelline (C01004)” value was 0.00%.
